The results in this text go back to PubChem BioAssay (NCI).

Test systems include ACHN renal; BT-549 breast; CAKI-1 renal; DU-145 prostate; EKVX NSCLC; HCC-2998 colon; HOP-92 NSCLC; K-562 leukemia; KM12 colon; M14 melanoma; NCI-H23 lung; SF-295 CNS; SK-MEL-2 melanoma; SN12C renal; SNB-75 CNS; SW-620 colon; T-47D breast; SK-OV-3 ovarian; NCI-H226 lung.
Test in all cases: inhibition of tumour cell growth, NCI panel, 48 h

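Dose response: 5 concentrations. Exposure: 48 h. Format: 96-well plates. Endpoint: linear interpolation; highest concentration if not reached. The concentration for full growth arrest is given as TGI.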

`COc1ccccc1C1c2cc3c(cc2OC(N2CCCC2)C1C)OCO3` (stereo unspecified): the TGI is greater than 57.5 µM in the assay on ACHN renal; 48 µM in the assay with BT-549 breast; 31.4 µM with CAKI-1 renal; 26.9 µM in the assay with DU-145 prostate; 50.6 µM in the assay on EKVX NSCLC; 32.9 µM in the assay on HCC-2998 colon. Also, the TGI was 20.6 µM in the assay on HOP-92 NSCLC; greater than 53.3 µM in the assay on K-562 leukemia; 39.5 µM in the assay with KM12 colon; 30.1 µM in the assay on M14 melanoma; greater than 31.6 µM with NCI-H23 lung; 39.3 µM in the assay on SF-295 CNS. Moreover, the TGI in the assay with SK-MEL-2 melanoma was 29.8 µM; with SN12C renal, 39.7 µM; in the assay with SNB-75 CNS it was 27.3 µM; in the assay on SW-620 colon, 44.7 µM; with T-47D breast, 25.5 µM.
With `CCOP(=O)(OCC)C(Cc1ccc(Cl)cc1)NS(=O)(=O)c1ccc(C)cc1` (stereo unspecified), the TGI with ACHN renal, in the assay with BT-549 breast, in the assay with CAKI-1 renal, in the assay on DU-145 prostate, with EKVX NSCLC and in the assay with HCC-2998 colon was greater than 100 µM each time. The TGI in the assay on HOP-92 NSCLC, in the assay on K-562 leukemia, with KM12 colon, in the assay on M14 melanoma, in the assay with NCI-H23 lung and in the assay with SF-295 CNS was greater than 100 µM each time. In addition, the TGI in the assay with SK-MEL-2 melanoma, in the assay with SK-OV-3 ovarian, with SN12C renal, with SW-620 colon and in the assay with T-47D breast was greater than 100 µM in each case.
`Cc1ccc(/N=N/C(=NNC(=O)c2ccc(C)cc2)c2ccc(N(C)C)cc2)cc1`: the TGI in the assay with ACHN renal was 92.4 µM; in the assay with BT-549 breast, 62.4 µM; in the assay on CAKI-1 renal it was 48.8 µM; in the assay with DU-145 prostate, 73.9 µM; in the assay on EKVX NSCLC, greater than 100 µM; in the assay with HCC-2998 colon, 73.2 µM. For the same compound, the TGI was 80.2 µM in the assay on HOP-92 NSCLC; greater than 100 µM in the assay with K-562 leukemia; 37 µM in the assay on KM12 colon; 60.4 µM in the assay with M14 melanoma; 68.4 µM in the assay with NCI-H226 lung; 69.3 µM in the assay on NCI-H23 lung. Also, the TGI in the assay on SF-295 CNS was 76.1 µM; in the assay with SK-MEL-2 melanoma it was greater than 100 µM; in the assay with SK-OV-3 ovarian it was 76.2 µM; with SN12C renal, 68.5 µM; in the assay on SW-620 colon, greater than 100 µM; in the assay with T-47D breast, greater than 100 µM.
For `C=CCNC(=O)CN(CC(=O)O)C1CCCCC1N(CC(=O)O)CC(=O)O` (stereo unspecified), the TGI in the assay with ACHN renal, in the assay with BT-549 breast, in the assay on CAKI-1 renal, in the assay with DU-145 prostate, in the assay on HCC-2998 colon and with HOP-92 NSCLC was greater than 100 µM in each case. For the same compound, the TGI in the assay with K-562 leukemia, in the assay with KM12 colon, in the assay with NCI-H226 lung, in the assay with NCI-H23 lung, in the assay with SF-295 CNS and in the assay on SK-OV-3 ovarian was greater than 100 µM in each case. For the same compound, the TGI in the assay on SN12C renal, in the assay with SNB-75 CNS, in the assay with SW-620 colon and in the assay on T-47D breast was greater than 100 µM throughout.
Consider `COC(=O)[C@@]1(NC(=O)C(CC(=O)OC(C)(C)C)NC(=O)OC(C)(C)C)C[C@H]1C` (stereo partly specified), for which the TGI in the assay on ACHN renal, in the assay with BT-549 breast, in the assay with CAKI-1 renal, with DU-145 prostate, in the assay with EKVX NSCLC and in the assay with HCC-2998 colon was greater than 100 µM each time. Also, the TGI with K-562 leukemia, in the assay with KM12 colon, in the assay with M14 melanoma, with NCI-H226 lung, with NCI-H23 lung and in the assay with SF-295 CNS was greater than 100 µM throughout. Besides, the TGI in the assay with SK-MEL-2 melanoma, in the assay on SK-OV-3 ovarian, with SN12C renal, in the assay with SNB-75 CNS, in the assay on SW-620 colon and in the assay with T-47D breast was greater than 100 µM in each case.
Take `C[C@@]1(OC(=O)c2cc([N+](=O)[O-])cc([N+](=O)[O-])c2)C[C@@H]2CCCC[C@@H]21`: the TGI in the assay on ACHN renal, in the assay on BT-549 breast, with CAKI-1 renal, in the assay on DU-145 prostate, in the assay on EKVX NSCLC and with HCC-2998 colon was greater than 100 µM throughout. In addition, the TGI in the assay with K-562 leukemia, with KM12 colon, with M14 melanoma, with NCI-H226 lung, with NCI-H23 lung and with SF-295 CNS was greater than 100 µM throughout. Besides, the TGI with SK-MEL-2 melanoma, in the assay with SK-OV-3 ovarian, in the assay on SN12C renal, in the assay with SNB-75 CNS, with SW-620 colon and with T-47D breast was greater than 100 µM throughout.
On to `NC(=O)c1sc2nc3ccccc3n2c1N`, for which the TGI was greater than 100 µM in the assay with ACHN renal; 76.8 µM with BT-549 breast; greater than 100 µM in the assay on CAKI-1 renal; greater than 100 µM in the assay with DU-145 prostate; greater than 100 µM in the assay with EKVX NSCLC; greater than 100 µM with HCC-2998 colon. Further, the TGI was greater than 100 µM in the assay on HOP-92 NSCLC; greater than 100 µM in the assay on M14 melanoma; greater than 100 µM with NCI-H226 lung; 41.4 µM with NCI-H23 lung; 50.8 µM in the assay with SF-295 CNS; 99.2 µM in the assay on SK-MEL-2 melanoma. The TGI is 89.4 µM with SK-OV-3 ovarian, 79.1 µM in the assay on SNB-75 CNS, greater than 100 µM in the assay with SW-620 colon and greater than 100 µM with T-47D breast.
In the case of `CN(CCNC(=S)c1cn(C)c2c1ccc1ccccc12)CCNC(=S)c1cn(C)c2c1ccc1ccccc12`, the TGI with ACHN renal, with BT-549 breast, with CAKI-1 renal, in the assay with DU-145 prostate, with EKVX NSCLC and in the assay with HCC-2998 colon was greater than 100 µM each time. The TGI in the assay with HOP-92 NSCLC, in the assay with K-562 leukemia, in the assay on KM12 colon, in the assay with NCI-H23 lung, in the assay with SF-295 CNS and in the assay on SK-MEL-2 melanoma was greater than 100 µM each time. Also, the TGI with SK-OV-3 ovarian was greater than 100 µM; with SN12C renal it was greater than 100 µM; in the assay on SNB-75 CNS, greater than 100 µM; in the assay with SW-620 colon, greater than 100 µM; in the assay with T-47D breast it was 28.6 µM.
In the case of `C=C1C2CCC3(CCC4C5(C)CCCC4(C=[N+](CCO)C5)C3C2)C1O` (stereo unspecified), the TGI in the assay on ACHN renal, with BT-549 breast, with CAKI-1 renal, with DU-145 prostate, in the assay with EKVX NSCLC and in the assay with HCC-2998 colon was greater than 100 µM throughout. Also, the TGI in the assay on HOP-92 NSCLC, with KM12 colon, with M14 melanoma, in the assay with NCI-H23 lung, with SF-295 CNS and in the assay on SK-MEL-2 melanoma was greater than 100 µM in each case. The TGI in the assay on SK-OV-3 ovarian, in the assay with SN12C renal, in the assay with SNB-75 CNS, in the assay on SW-620 colon and in the assay with T-47D breast was greater than 100 µM in each case.
With `C=C[C@]1(O[Si](C)(C)C)C[C@@]2(C(=O)OCC)C(O)C(=O)N3CCc4cc(OC)c(OC)cc4[C@]312` (stereo partly specified), the TGI in the assay on ACHN renal, in the assay on BT-549 breast, with CAKI-1 renal, in the assay with DU-145 prostate, with EKVX NSCLC and in the assay with HOP-92 NSCLC was greater than 100 µM in each case. The TGI with K-562 leukemia, with KM12 colon, in the assay with M14 melanoma, with NCI-H226 lung, with NCI-H23 lung and in the assay on SF-295 CNS was greater than 100 µM each time. Also, the TGI in the assay on SK-MEL-2 melanoma, in the assay on SK-OV-3 ovarian, with SN12C renal, in the assay on SNB-75 CNS, in the assay with SW-620 colon and in the assay on T-47D breast was greater than 100 µM in each case.
`COc1cc(C(=O)O)c(-c2cc3c(cc2C=O)OCO3)c(OC)c1OC`: the TGI in the assay on ACHN renal, in the assay with BT-549 breast, in the assay on CAKI-1 renal, in the assay with DU-145 prostate, with HCC-2998 colon and with HOP-92 NSCLC was greater than 10 µM throughout. The TGI in the assay on K-562 leukemia, in the assay on KM12 colon, with M14 melanoma, in the assay on NCI-H23 lung, in the assay with SF-295 CNS and with SK-OV-3 ovarian was greater than 10 µM each time. Also, the TGI in the assay on SN12C renal, in the assay on SNB-75 CNS, in the assay on SW-620 colon and in the assay on T-47D breast was greater than 10 µM in each case.
Consider `CCN1C[C@]2(C)CC[C@H](OC)C34C5C[C@@H]6[C@@H](OC)C[C@@](OC)(C5[C@H]6OCc5ccccc5)C(C13)[C@H](OC(C)=O)[C@@H]42` (stereo partly specified), for which the TGI in the assay with ACHN renal, in the assay with BT-549 breast, with DU-145 prostate, in the assay on EKVX NSCLC, in the assay on HOP-92 NSCLC and in the assay with K-562 leukemia was greater than 100 µM each time. In addition, the TGI in the assay with KM12 colon, with M14 melanoma, with NCI-H226 lung, in the assay with NCI-H23 lung, with SF-295 CNS and in the assay with SK-MEL-2 melanoma was greater than 100 µM throughout. For the same compound, the TGI is greater than 100 µM in the assay on SK-OV-3 ovarian; greater than 100 µM in the assay on SN12C renal; 36 µM in the assay with SNB-75 CNS; greater than 100 µM in the assay with SW-620 colon; greater than 100 µM in the assay with T-47D breast.
For the compound `O=C(Nc1ccc2[nH]c(C(=O)N3CC(CCl)c4ccc([N+](=O)[O-])cc43)cc2c1)c1cc2ccccc2o1` (stereo unspecified), the TGI in the assay with BT-549 breast, in the assay with CAKI-1 renal, with DU-145 prostate, in the assay with EKVX NSCLC, in the assay on HCC-2998 colon and in the assay on HOP-92 NSCLC was greater than 1100 µM each time. Further, the TGI in the assay with KM12 colon, in the assay on M14 melanoma, in the assay on NCI-H226 lung, in the assay with NCI-H23 lung, in the assay on SF-295 CNS and with SK-MEL-2 melanoma was greater than 1100 µM each time. Further, the TGI with SK-OV-3 ovarian, in the assay with SN12C renal, in the assay on SW-620 colon and in the assay on T-47D breast was greater than 1100 µM in each case.
As to `CC(C)CCC[C@@H](C)[C@H]1CC[C@H]2C3=C[C@H](OS(=O)(=O)O)[C@@]4(O)C[C@@H](O)CC[C@]4(C)[C@@]3(O)CC[C@]12C`, the TGI with ACHN renal, in the assay with BT-549 breast, in the assay with CAKI-1 renal, with DU-145 prostate, with EKVX NSCLC and in the assay on HCC-2998 colon was greater than 100 µM in each case. The TGI in the assay on HOP-92 NSCLC, in the assay with K-562 leukemia, with KM12 colon, in the assay with M14 melanoma, in the assay on NCI-H226 lung and in the assay on NCI-H23 lung was greater than 100 µM in each case. The TGI in the assay on SF-295 CNS, in the assay with SK-MEL-2 melanoma, in the assay with SK-OV-3 ovarian, in the assay with SN12C renal, with SW-620 colon and in the assay on T-47D breast was greater than 100 µM throughout.
Turning to `O=C(O)Cc1cccc2c(=O)c3cccc([N+](=O)[O-])c3[nH]c12`, the TGI in the assay on ACHN renal, in the assay with BT-549 breast, in the assay with CAKI-1 renal, in the assay with DU-145 prostate, in the assay with HCC-2998 colon and with HOP-92 NSCLC was greater than 100 µM throughout. The TGI with K-562 leukemia, in the assay on KM12 colon, in the assay with M14 melanoma, with NCI-H23 lung, in the assay with SF-295 CNS and in the assay on SK-MEL-2 melanoma was greater than 100 µM each time. Also, the TGI in the assay with SK-OV-3 ovarian, with SN12C renal, with SNB-75 CNS, in the assay with SW-620 colon and with T-47D breast was greater than 100 µM each time.
